Earlier results, collected in patent US20260226019A1, “NEGATIVE ALLOSTERIC MODULATORS OF METABOTROPIC GLUTAMATE RECEPTOR 2” (Vanderbilt University, priority 2023, published 2026).
Like-named read-outs stand apart in the source and are kept apart here.

Tests used:
[1] = test system: central mGlu2 and mGlu3 receptors; conditions: target-specific manner; cited from earlier work
mGlu2 = conditions: cited from earlier work
mGlu2/3 receptor [2] = conditions: rat forced swim test, normal animals; cited from earlier work
[3] = cited from earlier work; for activity in the tail suspension test: Helpless (H) mice; for antidepressant effect: helpless mice
mGlu2/3 receptor [4] = conditions: mouse tail-suspension test, normal animals; cited from earlier work
[5] = C57B16/J mice, FST; cited from earlier work
group II mGlu receptors = conditions: treated mice; cited from earlier work
[6] = dominant-submissive test; cited from earlier work
[7] = social isolation reared mice; cited from earlier work
[8] = olfactory bulbectomized rats; repeated administration for 14 days; cited from earlier work
[9] = test system: group II mGlu receptors (mGlu2 and mGlu3); conditions: CFS model; cited from earlier work
mGlu2/3 receptor [10] = conditions: learned helplessness test; treatment for 7 days; cited from earlier work

## N[C@](CC1c2ccccc2Oc2ccccc21)(C(=O)O)[C@H]1C[C@@H]1C(=O)O [LY341495]
[1]
  hypolocomotor effect of mGlu2/3 agonist (LY379268): achieved the same result
mGlu2
  LY566332 amplification of AP-induced neurodegeneration: prevented
mGlu2/3 receptor [2]
  antidepressant-like effects: Antidepressant-like effects
[3]
  activity in the tail suspension test: active
[3]; acute administration
  antidepressant effect: potent antidepressant effect
mGlu2/3 receptor [4]
  antidepressant-like effects: Antidepressant-like effects
[5]
  immobility time: dose-dependently reduced
Group II mGlu receptors
  marble-burying behavior: significantly reduce

## CCS(=O)(=O)N(Cc1cccnc1)c1cccc(-c2ccc(C#N)cc2)c1 [LY566332]
mGlu2
  AP-induced neurodegeneration: amplified

## CNCCC(Oc1ccc(C(F)(F)F)cc1)c1ccccc1 (stereo not drawn) [fluoxetine]
[6]
  onset of effects: after two weeks
[3]; chronic (21 days) treatment
  antidepressant effect: full antidepressant effect

## Cc1cc(-c2cccc(C3=Nc4cc(C)c(C(F)(F)F)cc4NC(=O)C3)c2)cc(C)n1 [Compound R04491533]
[1]
  hypolocomotor effect of mGlu2/3 agonist (LY379268): reversed
[3]
  activity in the tail suspension test: active
[5]
  immobility time: dose-dependently reduced

## N[C@]1(C(=O)O)[C@H]2[C@@H](C[C@H]1OCc1ccc(Cl)c(Cl)c1)[C@]2(F)C(=O)O [MGS0039]
[7]
  increased immobility in the FST: reversed
[8]
  hyperactivity in the open field test: attenuated
  learning deficit in the passive avoidance test: attenuated
mGlu2/3 receptor [2]
  antidepressant-like effects: Antidepressant-like effects
mGlu2/3 receptor [4]
  antidepressant-like effects: Antidepressant-like effects
[9]
  freezing behavior: significantly decreased
Group II mGlu receptors
  marble-burying behavior: reduced marble-burying behavior in a significant and dose dependent manner
  spontaneous locomotor activity: no significant change
mGlu2/3 receptor [10]
  number of escape failures: significantly reduced

## COCCCC/C(=N\OCCN)c1ccc(C(F)(F)F)cc1 [fluvoxamine]
[9]
  freezing behavior: significantly decreased
